Results taken from patent US9738634B2, “Heterocyclic amide compound and herbicide” (SYNGENTA PARTICIPATIONS AG, priority 2013, dated 2017).

Experiments:
Assay type in all cases: in vivo
Details in all cases: treatment dosage 320 g/ha
barnyard grass [1] = experiment: Test Example 1: weedkilling efficacy, preemergent weed treatment in the submerged state; A: barnyard grass
In short: (§1)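 Pots of alluvial soil were flooded to a 4 cm depth. Mixed weed seeds were sown and 2.5 leaf-stage rice seedlings transplanted. On sowing day, water-diluted emulsion was applied to the water surface (dose in g/ha). After 3 weeks at 25–30 °C, effects were rated.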

bulrush [2] = experiment: Test Example 1: weedkilling efficacy, preemergent weed treatment in the submerged state; B: bulrush
In short: as §1

oval-leafed pondweed [3] = experiment: Test Example 1: weedkilling efficacy, preemergent weed treatment in the submerged state; C: oval-leafed pondweed
In short: as §1

transplanted rice = experiment: Test Example 1: preemergent weed treatment in the submerged state, effect on crop; a: transplanted rice
In short: as §1

barnyard grass [4] = experiment: Test Example 2: weedkilling efficacy, growth period weed treatment in the submerged state; A: barnyard grass
In short: (§2)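 Weeds treated at the 1-2 leaf stage by application of diluted emulsion onto floodwater (4 cm depth, alluvial soil) at specified g/ha. Grown in greenhouse at 25 to 30° C; herbicidal effect rated three weeks after treatment.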

bulrush [5] = experiment: Test Example 2: weedkilling efficacy, growth period weed treatment in the submerged state; B: bulrush
In short: as §2

oval-leafed pondweed [6] = experiment: Test Example 2: weedkilling efficacy, growth period weed treatment in the submerged state; C: oval-leafed pondweed
In short: as §2

crabgrass [7] = experiment: Test Example 3: weedkilling efficacy through soil treatment; D: crabgrass
In short: (§3)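 Crop and weed responses were judged three weeks after a uniform surface spray of the water-diluted emulsion at the given g/ha rate. Seeds sat beneath about 1.5 cm of sterilized diluvial soil, and boxes stood in a greenhouse at 25 to 30° C.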

green foxtail [8] = experiment: Test Example 3: weedkilling efficacy through soil treatment; E: green foxtail
In short: as §3

barnyard grass [9] = experiment: Test Example 3: weedkilling efficacy through soil treatment; F: barnyard grass
In short: as §3

wild oat [10] = experiment: Test Example 3: weedkilling efficacy through soil treatment; G: wild oat
In short: as §3

black-grass [11] = experiment: Test Example 3: weedkilling efficacy through soil treatment; H: black-grass
In short: as §3

Italian ryegrass [12] = experiment: Test Example 3: weedkilling efficacy through soil treatment; I: Italian ryegrass
In short: as §3

common wind-grass [13] = experiment: Test Example 3: weedkilling efficacy through soil treatment; J: common wind-grass
In short: as §3

Indian mallow [14] = experiment: Test Example 3: weedkilling efficacy through soil treatment; K: Indian mallow
In short: as §3

redroot pigweed [15] = experiment: Test Example 3: weedkilling efficacy through soil treatment; L: redroot pigweed
In short: as §3

fig-leafed goosefoot [16] = experiment: Test Example 3: weedkilling efficacy through soil treatment; M: fig-leafed goosefoot
In short: as §3

chickweed [17] = experiment: Test Example 3: weedkilling efficacy through soil treatment; N: chickweed
In short: as §3

birds-eye speedwell [18] = experiment: Test Example 3: weedkilling efficacy through soil treatment; p: birds-eye speedwell
In short: as §3

directly sown rice [19] = experiment: Test Example 3: soil treatment, effect on crop; b: directly sown rice
In short: as §3

corn [20] = experiment: Test Example 3: soil treatment, effect on crop; c: corn
In short: as §3

soybean [21] = experiment: Test Example 3: soil treatment, effect on crop; d: soybean
In short: as §3

wheat [22] = experiment: Test Example 3: soil treatment, effect on crop; e: wheat
In short: as §3

beet [23] = experiment: Test Example 3: soil treatment, effect on crop; f: beet
In short: as §3

rapeseed [24] = experiment: Test Example 3: soil treatment, effect on crop; g: rapeseed
In short: as §3

crabgrass [25] = experiment: Test Example 4: weedkilling efficacy by foliar treatment; D: crabgrass
In short: (§4)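 Seeds are spot-sown into sterilized diluvial soil and covered with about 1.5 cm of soil. After 14 days' greenhouse growth at 25 to 30° C, plants are sprayed on stems and leaves with diluted emulsion at the stated g/ha rate, then scored at 3 weeks.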

green foxtail [26] = experiment: Test Example 4: weedkilling efficacy by foliar treatment; E: green foxtail
In short: as §4

barnyard grass [27] = experiment: Test Example 4: weedkilling efficacy by foliar treatment; F: barnyard grass
In short: as §4

wild oat [28] = experiment: Test Example 4: weedkilling efficacy by foliar treatment; G: wild oat
In short: as §4

black-grass [29] = experiment: Test Example 4: weedkilling efficacy by foliar treatment; H: black-grass
In short: as §4

Italian ryegrass [30] = experiment: Test Example 4: weedkilling efficacy by foliar treatment; I: Italian ryegrass
In short: as §4

common wind-grass [31] = experiment: Test Example 4: weedkilling efficacy by foliar treatment; J: common wind-grass
In short: as §4

Indian mallow [32] = experiment: Test Example 4: weedkilling efficacy by foliar treatment; K: Indian mallow
In short: as §4

redroot pigweed [33] = experiment: Test Example 4: weedkilling efficacy by foliar treatment; L: redroot pigweed
In short: as §4

fig-leafed goosefoot [34] = experiment: Test Example 4: weedkilling efficacy by foliar treatment; M: fig-leafed goosefoot
In short: as §4

chickweed [35] = experiment: Test Example 4: weedkilling efficacy by foliar treatment; N: chickweed
In short: as §4

catchweed = experiment: Test Example 4: weedkilling efficacy by foliar treatment; O: catchweed
In short: as §4

birds-eye speedwell [36] = experiment: Test Example 4: weedkilling efficacy by foliar treatment; p: birds-eye speedwell
In short: as §4

directly sown rice [37] = experiment: Test Example 4: foliar treatment, effect on crop; b: directly sown rice
In short: as §4

corn [38] = experiment: Test Example 4: foliar treatment, effect on crop; c: corn
In short: as §4

soybean [39] = experiment: Test Example 4: foliar treatment, effect on crop; d: soybean
In short: as §4

wheat [40] = experiment: Test Example 4: foliar treatment, effect on crop; e: wheat
In short: as §4

beet [41] = experiment: Test Example 4: foliar treatment, effect on crop; f: beet
In short: as §4

rapeseed [42] = experiment: Test Example 4: foliar treatment, effect on crop; g: rapeseed
In short: as §4

CC1=C(c2ccccc2)C(=O)N(C(C)(C)C(=O)Nc2cc(C(F)(F)F)cc(F)n2)CO1 [B-2-40]
A (barnyard grass) weedkilling efficacy grade (barnyard grass [1]): 5 (weed kill ratio 90% or more, (practically complete withering))
B (bulrush) weedkilling efficacy grade (bulrush [2]): 5 (weed kill ratio 90% or more, (practically complete withering))
C (oval-leafed pondweed) weedkilling efficacy grade (oval-leafed pondweed [3]): 5 (weed kill ratio 90% or more, (practically complete withering))
a (transplanted rice) effect on crop grade (transplanted rice): 3 (weed kill ratio 40% or more, less than 70%)
A (barnyard grass) weedkilling efficacy grade (barnyard grass [4]): 5 (weed kill ratio 90% or more, (practically complete withering))
B (bulrush) weedkilling efficacy grade (bulrush [5]): 5 (weed kill ratio 90% or more, (practically complete withering))
C (oval-leafed pondweed) weedkilling efficacy grade (oval-leafed pondweed [6]): 5 (weed kill ratio 90% or more, (practically complete withering))
D (crabgrass) weedkilling efficacy grade (crabgrass [7]): 5 (weed kill ratio 90% or more, (practically complete withering))
E (green foxtail) weedkilling efficacy grade (green foxtail [8]): 5 (weed kill ratio 90% or more, (practically complete withering))
F (barnyard grass) weedkilling efficacy grade (barnyard grass [9]): 5 (weed kill ratio 90% or more, (practically complete withering))
G (wild oat) weedkilling efficacy grade (wild oat [10]): 5 (weed kill ratio 90% or more, (practically complete withering))
H (black-grass) weedkilling efficacy grade (black-grass [11]): 5 (weed kill ratio 90% or more, (practically complete withering))
I (Italian ryegrass) weedkilling efficacy grade (Italian ryegrass [12]): 5 (weed kill ratio 90% or more, (practically complete withering))
J (common wind-grass) weedkilling efficacy grade (common wind-grass [13]): 5 (weed kill ratio 90% or more, (practically complete withering))
K (Indian mallow) weedkilling efficacy grade (Indian mallow [14]): 5 (weed kill ratio 90% or more, (practically complete withering))
L (redroot pigweed) weedkilling efficacy grade (redroot pigweed [15]): 4 (weed kill ratio 70% or more, less than 90%)
M (fig-leafed goosefoot) weedkilling efficacy grade (fig-leafed goosefoot [16]): 5 (weed kill ratio 90% or more, (practically complete withering))
N (chickweed) weedkilling efficacy grade (chickweed [17]): 4 (weed kill ratio 70% or more, less than 90%)
P (birds-eye speedwell) weedkilling efficacy grade (birds-eye speedwell [18]): 5 (weed kill ratio 90% or more, (practically complete withering))
b (directly sown rice) effect on crop grade (directly sown rice [19]): 5 (weed kill ratio 90% or more, (practically complete withering))
c (corn) effect on crop grade (corn [20]): 0 (weed kill ratio 5% or less (practically no effect))
d (soybean) effect on crop grade (soybean [21]): 2 (weed kill ratio 20% or more, less than 40%)
e (wheat) effect on crop grade (wheat [22]): 0 (weed kill ratio 5% or less (practically no effect))
f (beet) effect on crop grade (beet [23]): 3 (weed kill ratio 40% or more, less than 70%)
g (rapeseed) effect on crop grade (rapeseed [24]): 4 (weed kill ratio 70% or more, less than 90%)
D (crabgrass) weedkilling efficacy grade (crabgrass [25]): 5 (weed kill ratio 90% or more, (practically complete withering))
E (green foxtail) weedkilling efficacy grade (green foxtail [26]): 5 (weed kill ratio 90% or more, (practically complete withering))
F (barnyard grass) weedkilling efficacy grade (barnyard grass [27]): 5 (weed kill ratio 90% or more, (practically complete withering))
G (wild oat) weedkilling efficacy grade (wild oat [28]): 5 (weed kill ratio 90% or more, (practically complete withering))
H (black-grass) weedkilling efficacy grade (black-grass [29]): 5 (weed kill ratio 90% or more, (practically complete withering))
I (Italian ryegrass) weedkilling efficacy grade (Italian ryegrass [30]): 5 (weed kill ratio 90% or more, (practically complete withering))
J (common wind-grass) weedkilling efficacy grade (common wind-grass [31]): 5 (weed kill ratio 90% or more, (practically complete withering))
K (Indian mallow) weedkilling efficacy grade (Indian mallow [32]): 5 (weed kill ratio 90% or more, (practically complete withering))
L (redroot pigweed) weedkilling efficacy grade (redroot pigweed [33]): 5 (weed kill ratio 90% or more, (practically complete withering))
M (fig-leafed goosefoot) weedkilling efficacy grade (fig-leafed goosefoot [34]): 5 (weed kill ratio 90% or more, (practically complete withering))
N (chickweed) weedkilling efficacy grade (chickweed [35]): 4 (weed kill ratio 70% or more, less than 90%)
O (catchweed) weedkilling efficacy grade (catchweed): 5 (weed kill ratio 90% or more, (practically complete withering))
P (birds-eye speedwell) weedkilling efficacy grade (birds-eye speedwell [36]): 4 (weed kill ratio 70% or more, less than 90%)
b (directly sown rice) effect on crop grade (directly sown rice [37]): 5 (weed kill ratio 90% or more, (practically complete withering))
c (corn) effect on crop grade (corn [38]): 5 (weed kill ratio 90% or more, (practically complete withering))
d (soybean) effect on crop grade (soybean [39]): 5 (weed kill ratio 90% or more, (practically complete withering))
e (wheat) effect on crop grade (wheat [40]): 1 (weed kill ratio 5% or more, less than 20%)
f (beet) effect on crop grade (beet [41]): 4 (weed kill ratio 70% or more, less than 90%)
g (rapeseed) effect on crop grade (rapeseed [42]): 4 (weed kill ratio 70% or more, less than 90%)
